Series [1] relates to perfused porcine liver. As to the kind of experiment: Midazolam continuous portal administration to ex vivo perfused porcine liver, metabolite quantified by UPLC/MS.
Series [2] concerns perfused porcine liver. As to the kind of experiment: Atorvastatin normothermic machine perfusion of ex vivo porcine liver, perfusate and bile analysed by LC/MS. Format: in vitro ADME, Sus scrofa domesticus. Conditions: for % billiary clearance (metabolite abundance as percentage of given Atorvastatin dose): 0-120 min, Atorva alone, 0.104 mg atorvastatin to portal vein, bile, n = 1. As to the method: Porcine Livers. Livers were obtained from a local slaughterhouse (Sus scrofa domesticus, approximately at the age of 6 months, with body weight between 100 and 120 kg). Pigs were sacrificed by a standardized procedure of electrocution followed by exsanguination. Thereafter, 3 L of blood was collected in a container supplemented with 25,000 IU of heparin. All abdominal organs were dissected outside the animal and collected. Within 20 minutes after termination, the vena porta was cannulated and directly flushed by gravity with 3 L of NaCl 0.9% (Baxter BV, Utrecht, The Netherlands) supplemented with 5000 IU of heparin followed by 2 L of ice-cold histidine-tryptophan-ketoglutarate solution (Plegistore, Warszawa, Poland). In the meantime, the arteria hepatica was dissected, cannulated, and subsequently flushed with histidine-tryptophan-ketoglutarate. At the laboratory, side branches were ligated, and the common bile duct was cannulated, whereas the ductus cysticus, derived from the gall bladder, was ligated. Normothermic Machine Perfusion. The porcine livers were perfused using the LiverAssist device (XVIVO, Groningen, The Netherlands). The machine consists of two rotary pumps that provide a pulsatile flow to the hepatic artery and a continuous flow to the portal vein. The system was filled with 2 L perfusion fluid containing red blood cells and perfusate (Table 2). […] Additionally, amino acids and vitamins were continuously provided to keep the liver metabolically active. Gas delivery to the LiverAssist consisted of 95% oxygen and 5% carbon dioxide at 2 L/min, and the temperature was set at 39 C (body temperature pigs). […] Arterial blood gas samples were taken hourly to monitor liver viability (PH, glucose, Na, K, lactate, etc.) using the i-STAT clinical analyzer (Abbot Point of Care Inc., Princeton, NJ). […] Time of starting the slow bolus was set at t=0 min. […] Drug concentrations in perfusate, bile and liver biopsies were determined by LC-MS/MS analysis as described below. […] Briefly, 20 μL of sample was extracted by adding 100 μL of acetonitrile containing internal standard. […] Samples were then mixed with 50 μL of water, vortexed and injected in to LC/MS for quantification. The mass spectrometer (AB Sciex API 5500) was operated in electrospray positive ion mode with the capillary voltage of 5.5 kV and Spray temperature of 550° C. The multiple reaction monitoring transitions used for all the compounds are shown table 4.

The mark [3] stands for this setting: 240 min of perfusion, input of 49.8 mg midazolam.
Setting [4] is: from 40 mg midazolam (as summarised in description).

Each structure is given as a SMILES string.

On to `O=C(O)[C@H]1O[C@@H](OCc2ncc3n2-c2ccc(Cl)cc2C(c2ccccc2F)=NC3)[C@H](O)[C@@H](O)[C@@H]1O` [1-OH midazolam glucuronide, midazolam 1′O-glucuronide], for which the “presence in perfusate (chromatogram)” value in the series on perfused porcine liver [1] (240 min after starting the portal administration of midazolam) is listed as “(abundant) presence”. Also, in the series with perfused porcine liver [1] (setting [3]), the “Yield 1-OH midazolam glucuronide, Bile” value is listed as 0.254 mg; the “Yield 1-OH midazolam glucuronide, Perfusate” value was 1.19 mg; the “Yield 1-OH midazolam glucuronide, Tissue” value was determined as 1.891 mg. For the same compound, the “Yield 1-OH midazolam glucuronide, Total” value in the series with perfused porcine liver [1] (240 min of perfusion, input of 49.8 mg midazolam, sum of perfusate, bile, tissue) is recorded as 3.33 mg 1-OH midazolam glucuronide. For the same compound, in the series on perfused porcine liver [1] (setting [4]), the “metabolite obtained from liver tissue” value worked out at 2 mg; the “metabolite obtained from plasma and bile” value is given as 1.5 mg; the total metabolite produced stood at 3.5 mg.
With `CC(C)c1c(C(=O)Nc2ccccc2O)c(-c2ccccc2)c(-c2ccc(F)cc2)n1CCC1CC(O)CC(=O)O1` (stereo not drawn) [2-hydroxy atorva lactone, 2-hydroxy atorvastatin lactone], in the series on perfused porcine liver [2], the “% billiary clearance (metabolite abundance as percentage of given Atorvastatin dose)” value amounted to 3.48%.
Turning to `CC(C)c1c(C(=O)Nc2ccccc2O)c(-c2ccccc2)c(-c2ccc(F)cc2)n1CCC(O)CC(O)CC(=O)O` (stereo not drawn) [2-hydroxy atorva, 2-hydroxy atorvastatin], the “% billiary clearance (metabolite abundance as percentage of given Atorvastatin dose)” value in the series with perfused porcine liver [2] worked out at 5.33%.
As to `CC(C)c1c(C(=O)Nc2ccc(O)cc2)c(-c2ccccc2)c(-c2ccc(F)cc2)n1CCC1CC(O)CC(=O)O1` (stereo not drawn) [4-hydroxy atorva lactone, 4-hydroxy atorvastatin lactone], the “% billiary clearance (metabolite abundance as percentage of given Atorvastatin dose)” value in the series on perfused porcine liver [2] is on record as 0.400%.
On the same count and under the same terms, then `CC(C)c1c(C(=O)Nc2ccc(O)cc2)c(-c2ccccc2)c(-c2ccc(F)cc2)n1CC[C@@H](O)C[C@@H](O)CC(=O)O` [4-hydroxy atorva, 4-hydroxy atorvastatin], with 10.28%.
Turning to `CC(C)c1c(C(=O)Nc2ccccc2)c(-c2ccccc2)c(-c2ccc(F)cc2)n1CC[C@@H]1C[C@@H](O)CC(=O)O1` [Atorvastatin lactone], the “% billiary clearance (metabolite abundance as percentage of given Atorvastatin dose)” value in the series with perfused porcine liver [2] is listed as 9.17%.
Consider `CC(C)c1c(C(=O)Nc2ccccc2)c(-c2ccccc2)c(-c2ccc(F)cc2)n1CC[C@@H](O)C[C@@H](O)CC(=O)O` [atorvastatin, Atorvastatin, reference compound], for which the “time until atorvastatin was detected in the bile” value with perfused porcine liver [2] (after the start of the bolus administration, slow bolus of 0.104 mg over 10 minutes to portal vein) was at most 10 min. The “parent compound secreted into the bile” value in the series on perfused porcine liver [2] (within 120 min of perfusion, 0.104 mg to portal vein) was 13.0±5.6%.

These data come from patent publication US20250051825A1, “Ex Vivo Production of Compounds of Interest” (Nederlandse Organisatie voor …, priority 2021, published 2025).
